Data on seven molecules can be found in patent publication US8394442B2, “Process for the preparation of a flavoring concentrate, and a flavoring concentrate” (SYMRISE AG, priority 2007, dated 2013).

The nature of series [1]: log Pow* calculated by Formula 2 from log Pow and the polarity parameter P′(x) of the ethanol/water mixture.
A short description of series [2]: log Pow: distribution coefficient between 1-octanol and water. The following applies: 1-octanol/water.
Excerpt: Log Pow*=log Pow*−x*P′(x)/log Pow Formula 2: • where log Pow is the decimal logarithm of the distribution coefficient of a substance between 1-octanol and water, • x is the resulting solvent proportion based on the total volume proportion, normalized as 1.0, and • P′(x) is the polarity parameter for the corresponding solvent for the solvent proportion x.
The mark [3] stands for this setting: solvent ethanol, proportion 10%.
The mark [4] stands for this setting: solvent ethanol, proportion 30%.
Setting [5] is: solvent ethanol, proportion 40%.
Where [6] appears, read: solvent ethanol, proportion 50%.
Where [7] appears, read: solvent ethanol, proportion 60%.
[8] abbreviates: solvent ethanol, proportion 70%.
The mark [9] stands for this setting: solvent ethanol, proportion 80%.
The mark [10] stands for this setting: solvent ethanol, proportion 90%.
Where [11] appears, read: solvent ethanol, proportion 100%.

Like-named read-outs stand apart in the source and are kept apart here.

As to `O=Cc1ccccc1` [Benzaldehyde], the “log Pow* (P′ 2%)” value in series [1] (solvent ethanol, proportion 2%) is reported as 1.52. In series [1] (solvent ethanol, proportion 4%), the “log Pow* (P′ 4%)” value is on record as 1.40. Also, the “log Pow* (P′ 6%)” value in series [1] (solvent ethanol, proportion 6%) is reported as 1.30. The “log Pow* (P′ 8%)” value in series [1] (solvent ethanol, proportion 8%) is on record as 1.19. Moreover, the “log Pow* (P′ 10%)” value in series [1] (setting [3]) was 1.09. Moreover, in series [1] (setting [4]), the “log Pow* (P′ 30%)” value is given as 0.32. The “log Pow* (P′ 40%)” value in series [1] (setting [5]) was 0.03. In series [1] (setting [6]), the “log Pow* (P′ 50%)” value is recorded as −0.20. Moreover, the “log Pow* (P′ 60%)” value in series [1] (setting [7]) is −0.41. In addition, the “log Pow* (P′ 70%)” value in series [1] (setting [8]) is recorded as −0.58. Further, the “log Pow* (P′ 80%)” value in series [1] (setting [9]) is on record as −0.73. In series [1] (setting [10]), the “log Pow* (P′ 90%)” value is reported as −0.86. For the same molecule, the “log Pow* (P′ 100%)” value in series [1] (setting [11]) is −0.98.
As for `CCCSSCCC` [Dipropyldisulfide], in series [1], the “log Pow* (P′ 2%)” value was 3.85, the “log Pow* (P′ 4%)” value was 3.80, the “log Pow* (P′ 6%)” value was 3.76 and the “log Pow* (P′ 8%)” value is 3.71. In series [1], the “log Pow* (P′ 10%)” value was 3.67, the “log Pow* (P′ 30%)” value is 3.34, the “log Pow* (P′ 40%)” value is recorded as 3.22 and the “log Pow* (P′ 50%)” value is 3.12. Also, in series [1], the “log Pow* (P′ 60%)” value is 3.04, the “log Pow* (P′ 70%)” value was 2.97, the “log Pow* (P′ 80%)” value is reported as 2.90 and the “log Pow* (P′ 90%)” value is 2.85. Further, the “log Pow* (P′ 100%)” value in series [1] is on record as 2.80. Also, in series [2], the “log Pow” value is on record as 3.90.
For `CC(=O)/C=C/C1C(C)=CCCC1(C)C` (stereo not drawn) [alpha-ionone], the “log Pow* (P′ 2%)” value in series [1] (solvent ethanol, proportion 2%) was 3.81. Also, in series [1] (solvent ethanol, proportion 4%), the “log Pow* (P′ 4%)” value is listed as 3.76. In addition, the “log Pow* (P′ 6%)” value in series [1] (solvent ethanol, proportion 6%) is listed as 3.71. Moreover, the “log Pow* (P′ 8%)” value in series [1] (solvent ethanol, proportion 8%) is reported as 3.67. The “log Pow* (P′ 10%)” value in series [1] (setting [3]) is reported as 3.63. The “log Pow* (P′ 30%)” value in series [1] (setting [4]) is reported as 3.30. In series [1] (setting [5]), the “log Pow* (P′ 40%)” value is on record as 3.18. In addition, the “log Pow* (P′ 50%)” value in series [1] (setting [6]) is recorded as 3.08. Besides, the “log Pow* (P′ 60%)” value in series [1] (setting [7]) is on record as 2.99. In addition, the “log Pow* (P′ 70%)” value in series [1] (setting [8]) is 2.92. Further, in series [1] (setting [9]), the “log Pow* (P′ 80%)” value is reported as 2.85. In addition, in series [1] (setting [10]), the “log Pow* (P′ 90%)” value is reported as 2.80. Moreover, in series [1] (setting [11]), the “log Pow* (P′ 100%)” value is 2.75. In series [2], the “log Pow” value is recorded as 3.86.
For `OCc1ccco1` [Furfuryl alcohol], in series [1] (solvent ethanol, proportion 2%), the “log Pow* (P′ 2%)” value is reported as −0.43. In series [1] (solvent ethanol, proportion 4%), the “log Pow* (P′ 4%)” value was −1.10. Also, the “log Pow* (P′ 6%)” value in series [1] (solvent ethanol, proportion 6%) was −1.74. Further, in series [1] (solvent ethanol, proportion 8%), the “log Pow* (P′ 8%)” value is −2.35. For the same molecule, the “log Pow* (P′ 10%)” value in series [1] (setting [3]) was −2.92. Besides, in series [1] (setting [4]), the “log Pow* (P′ 30%)” value is recorded as −7.46. Besides, in series [1] (setting [5]), the “log Pow* (P′ 40%)” value is −9.13. The “log Pow* (P′ 50%)” value in series [1] (setting [6]) was −10.52. For the same molecule, the “log Pow* (P′ 60%)” value in series [1] (setting [7]) was −11.71. Besides, the “log Pow* (P′ 70%)” value in series [1] (setting [8]) is listed as −12.73. Besides, the “log Pow* (P′ 80%)” value in series [1] (setting [9]) is −13.61. Also, the “log Pow* (P′ 90%)” value in series [1] (setting [10]) is on record as −14.39. Moreover, the “log Pow* (P′ 100%)” value in series [1] (setting [11]) is −15.08.
`O=Cc1ccco1` [Furfural]: in series [1] (solvent ethanol, proportion 2%), the “log Pow* (P′ 2%)” value is on record as 0.46. In series [1] (solvent ethanol, proportion 4%), the “log Pow* (P′ 4%)” value is reported as 0.20. In series [1] (solvent ethanol, proportion 6%), the “log Pow* (P′ 6%)” value is on record as −0.04. Further, the “log Pow* (P′ 8%)” value in series [1] (solvent ethanol, proportion 8%) is −0.28. The “log Pow* (P′ 10%)” value in series [1] (setting [3]) is −0.50. For the same molecule, the “log Pow* (P′ 30%)” value in series [1] (setting [4]) is reported as −2.24. Besides, the “log Pow* (P′ 40%)” value in series [1] (setting [5]) was −2.88. In addition, the “log Pow* (P′ 50%)” value in series [1] (setting [6]) was −3.41. The “log Pow* (P′ 60%)” value in series [1] (setting [7]) is reported as −3.87. The “log Pow* (P′ 70%)” value in series [1] (setting [8]) was −4.26. In series [1] (setting [9]), the “log Pow* (P′ 80%)” value is on record as −4.60. Moreover, in series [1] (setting [10]), the “log Pow* (P′ 90%)” value is −4.90. Further, the “log Pow* (P′ 100%)” value in series [1] (setting [11]) is reported as −5.16.
As to `C=Cc1ccc(O)c(OC)c1`, in series [1], the “log Pow* (P′ 2%)” value is 2.40, the “log Pow* (P′ 4%)” value was 2.32, the “log Pow* (P′ 6%)” value is 2.25 and the “log Pow* (P′ 8%)” value is recorded as 2.18. For the same molecule, in series [1], the “log Pow* (P′ 10%)” value was 2.12, the “log Pow* (P′ 30%)” value is reported as 1.61, the “log Pow* (P′ 40%)” value is 1.42 and the “log Pow* (P′ 50%)” value is on record as 1.26. Also, in series [1], the “log Pow* (P′ 60%)” value is reported as 1.13, the “log Pow* (P′ 70%)” value is reported as 1.01, the “log Pow* (P′ 80%)” value is given as 0.91 and the “log Pow* (P′ 90%)” value is listed as 0.82. Moreover, in series [1], the “log Pow* (P′ 100%)” value was 0.75.
As to `CCCCCCOC(C)=O` [Hexylacetate], in series [1], the “log Pow* (P′ 2%)” value is given as 2.76, the “log Pow* (P′ 4%)” value is recorded as 2.69, the “log Pow* (P′ 6%)” value is reported as 2.63 and the “log Pow* (P′ 8%)” value is listed as 2.57. For the same molecule, in series [1], the “log Pow* (P′ 10%)” value is recorded as 2.51, the “log Pow* (P′ 30%)” value was 2.06, the “log Pow* (P′ 40%)” value is on record as 1.90 and the “log Pow* (P′ 50%)” value is on record as 1.76. In series [1], the “log Pow* (P′ 60%)” value was 1.64, the “log Pow* (P′ 70%)” value is 1.54, the “log Pow* (P′ 80%)” value is 1.46 and the “log Pow* (P′ 90%)” value is reported as 1.38. Moreover, in series [1], the “log Pow* (P′ 100%)” value is 1.31.
